Source: US20240158369A1, “PYRIMIDINE COMPOUND AS WEE-1 INHIBITOR” (WIGEN BIOMEDICINE TECHNOLOGY (SHANGHAI) CO., LTD., priority 2021, published 2024)
Read-outs that look alike come from different tables or passages of the source.

Experiments:
[1] = biological target: recombinant protein Wee-1 (Homo sapiens (Human), UniProt P30291); test: HTRF assay for inhibiting enzymatic activity of recombinant protein Wee-1; format: biochemical; conditions: compounds up to 200 nM, read-out: (IC50) Inhibitory activity against recombinant protein Wee-1
recombinant protein Wee-1, sequence (P30291 whole entry): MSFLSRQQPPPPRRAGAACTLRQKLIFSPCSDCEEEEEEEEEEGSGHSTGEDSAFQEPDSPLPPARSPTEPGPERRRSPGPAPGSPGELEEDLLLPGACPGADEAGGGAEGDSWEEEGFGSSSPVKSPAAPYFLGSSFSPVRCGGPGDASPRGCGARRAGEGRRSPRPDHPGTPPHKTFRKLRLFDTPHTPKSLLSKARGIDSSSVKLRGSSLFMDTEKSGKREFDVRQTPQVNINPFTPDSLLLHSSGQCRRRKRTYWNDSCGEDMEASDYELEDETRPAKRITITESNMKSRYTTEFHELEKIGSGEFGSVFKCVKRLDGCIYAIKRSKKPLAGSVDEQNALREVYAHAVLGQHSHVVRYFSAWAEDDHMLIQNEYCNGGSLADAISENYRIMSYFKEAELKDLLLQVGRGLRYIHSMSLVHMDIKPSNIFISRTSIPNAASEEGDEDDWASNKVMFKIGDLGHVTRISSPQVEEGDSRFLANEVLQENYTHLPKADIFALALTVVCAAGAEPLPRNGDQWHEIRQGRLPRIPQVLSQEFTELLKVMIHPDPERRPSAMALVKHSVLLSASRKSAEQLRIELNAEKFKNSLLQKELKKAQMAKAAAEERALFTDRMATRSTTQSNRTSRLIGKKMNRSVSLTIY
How it was run: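 Compound (up to 200 nM, 1:5 series) preincubated with Wee-1 in kinase buffer 30 min at 37° C; Fluorescein-PolyGAT and ATP then added, reaction run 90 min at room temperature. Antibody detection 60 min; 520/495 nm ratio versus DMSO gave % inhibition and IC50.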

[2] = tested on: MIA PaCa-2 cells; test: In-vitro anti-proliferative activity in combination with gemcitabine on MIA PaCa-2 cells; format: cell-based; conditions: 72 h
Experimental: MIA PaCa-2 cells were seeded on a 384-well plate at 3000 cells/well, and 20 nM or 200 nM gemcitabine (GMC) was added. After overnight adherence culture, DMSO or the compounds serially 1:5-diluted from 100 nM were added. The viability was assessed 72 h after dosing by measuring the intracellular ATP content. The inhibition percentage of viable cells by the compounds was calculated by comparing with the DMSO group, and the IC50 value was calculated.

[3] = with 20 nM gemcitabine, read-out: in combination with 20 nM GMC IC50
[4] = with 200 nM gemcitabine, read-out: in combination with 200 nM GMC IC50

| Structure (SMILES) | IC50 [1] | IC50 [2, 3] | IC50 [2, 4] |
| --- | --- | --- | --- |
| CN1CCc2ccc(Nc3ncc(-c4ccc(F)nc4)c(Nc4cccc(N=S(C)(C)=O)n4)n3)cc2C1 [Compound 108] | 10 to 50 nM | > 100 nM |  |
| CN1CCc2c(cc(Nc3ncc(C#N)c(Nc4cccc(N=S(C)(C)=O)n4)n3)cc2C2=CCCC2)C1 [Compound 17] | ≤ 10 nM | 11 nM |  |
| CN1CCc2c(cc(Nc3ncc(C#N)c(Nc4cccc(N=S(C)(C)=O)n4)n3)cc2-c2ccn(C)n2)C1 [Compound 113] | ≤ 10 nM | 11.7 nM |  |
| C#Cc1cc(Nc2ncc(C#N)c(Nc3cccc(N=S(C)(C)=O)n3)n2)cc2c1CCN(C)C2 [Compound 43] | ≤ 10 nM | 21.2 nM |  |
| CN1CCc2c(C#N)cc(Nc3ncc(C#N)c(Nc4cccc(N=S(C)(C)=O)n4)n3)cc2C1 [Compound 41] | 10 to 50 nM |  | > 100 nM |
| CN1CCN(c2ccc(Nc3ncc(C#N)c(Nc4cccc(N=S(C)(C)=O)n4)n3)cc2C2CC2)CC1 [Compound 155] | ≤ 10 nM | 5.4 nM |  |
| CN1CCc2c(F)cc(Nc3ncc(C#N)c(Nc4cccc(N=S(C)(C)=O)n4)n3)cc2C1 [Compound 25] | ≤ 10 nM | 18.6 nM |  |
| CN1CCc2ccc(Nc3ncc(C#N)c(Nc4cccc(N=S(C)(C)=O)n4)n3)cc2CC1 [Compound 55] | ≤ 10 nM | 11.3 nM |  |
| CN(C)C1Cc2ccc(Nc3ncc(C#N)c(Nc4cccc(N=S(C)(C)=O)n4)n3)cc2C1 (centres unmarked) [Compound 60] | ≤ 10 nM | 10.3 nM |  |
| CNC(=O)c1cnc(Nc2ccc3c(c2)CN(C)CC3)nc1Nc1cccc(N=S(C)(C)=O)n1 [Compound 7] | > 50 nM | > 100 nM |  |
| CC1CN(c2cc(Nc3ncc(C#N)c(Nc4cccc(N=S(C)(C)=O)n4)n3)cc3c2CCN(C)C3)CCO1 (centres unmarked) [Compound 123] | ≤ 10 nM | 28 nM |  |
| CN1CCc2ccc(Nc3ncc(S(C)(=O)=O)c(Nc4cccc(N=S(C)(C)=O)n4)n3)cc2C1 [Compound 5] | > 50 nM | > 100 nM |  |
| C#Cc1cnc(Nc2ccc3c(c2)CN(C)CC3)nc1Nc1cccc(N=S(C)(C)=O)n1 [Compound 107] | ≤ 10 nM | 26.6 nM |  |
| CN1CCc2c(cc(Nc3ncc(C#N)c(Nc4cccc(N=S(C)(C)=O)n4)n3)cc2N2CCCCC2)C1 [Compound 115] | ≤ 10 nM | 9.3 nM |  |
| CN(C)C1CCc2ccc(Nc3ncc(C#N)c(Nc4cccc(N=S(C)(C)=O)n4)n3)cc2CC1 (centres unmarked) [Compound 52] | ≤ 10 nM | 4.5 nM |  |
| CN(C)Cc1cc(Nc2ncc(C#N)c(Nc3cccc(N=S(C)(C)=O)n3)n2)cc2c1CCN(C)C2 [Compound 130] | ≤ 10 nM | 10 nM |  |
| CN1CCc2ccc(Nc3ncc(Br)c(Nc4cccc(N=S(C)(C)=O)n4)n3)cc2C1 [Compound 11] | ≤ 10 nM | 16 nM |  |
| CS(C)(=O)=Nc1cccc(Nc2nc(Nc3ccc4c(c3)CCC(N3CCCC3)CC4)ncc2C#N)n1 (centres unmarked) [Compound 146] | ≤ 10 nM | 4.8 nM |  |
| Cc1cc(Nc2ncc(C#N)c(Nc3cccc(N=S(C)(C)=O)n3)n2)cc2c1CCN(C)C2 [Compound 12] | ≤ 10 nM | 1.4 nM |  |
| COc1cc(Nc2ncc(C#N)c(Nc3cccc(N=S(C)(C)=O)n3)n2)cc2c1CCN(C)C2 [Compound 22] | ≤ 10 nM |  | 1.2 nM |
| C=Cc1cc(N=S(C)(C)=O)nc(Nc2nc(Nc3ccc4c(c3)CN(C)CC4)ncc2C#N)c1 [Compound 85] | ≤ 10 nM |  | > 100 nM |
| CS(C)(=O)=Nc1cccc(Nc2nc(Nc3cc4c(c(C5CC5)c3)CCNC4)ncc2C#N)n1 [Compound 148] | ≤ 10 nM | 2.1 nM |  |
| CN1CCN(c2ccc(Nc3ncc(C#N)c(Nc4cccc(N=S(C)(C)=O)n4)n3)cc2)CC1 [Compound 61] | ≤ 10 nM | 7.5 nM |  |
| CN1Cc2cc(Nc3ncc(C#N)c(Nc4cccc(N=S(C)(C)=O)n4)n3)ccc2C2(CC2)C1 [Compound 29] | ≤ 10 nM | 3.7 nM |  |
| CN1CCc2ccc(Nc3ncc(C#N)c(Oc4cccc(N=S(C)(C)=O)n4)n3)cc2C1 [Compound 106] | ≤ 10 nM | > 100 nM |  |
